Converted amounts (≈) assume the structure as drawn. “Also recorded” adds a separate entry of the source. Where two headings read alike, the source gives them in different places.
How the values were obtained:
[1] = Pharmacokinetics in SD rats, IV dosing (Paclitaxel and 1001)
Experimental: Pharmacokinetics studies were carried out to evaluate the plasma exposure of modified drug of Paclitaxel in SD rats when dosed intravenously (IV). The results were compared with exposure of Paclitaxel using the same dosing vehicle. The dosing vehicle that was used in this study was PEG400 and Normal saline in fixed composition. […] 3 mpk and 1 mpk IV dosing was done for the modified drug and 3 mpk IV for Paclitaxel parent drug. After IV dosing of the modified drug blood was collected by serial bleeding at different time points in heparinized tubes. Blood samples were centrifuged at 10,000 rpm for 5 min at 4° C. to obtain the plasma, which were aspirated into separate labeled tubes and stored at −80° C. Extraction solvent was added to plasma, was vortexed and shaken on shaker for 10 minutes, centrifuged at 10,000 rpm for 10 minutes at 4° C. Supernatant was kept for analysis.
Acetonitrile and plasma calibration curves were generated and percentage of drug recovery from plasma determined Quantitative analysis was done by liquid chromatography tandem mass spectrometer (API3000 LC-MS/MS).

[2] = Solubility of Paclitaxel modified drug in saline solvent systems by HPLC; settings: for solubility: thermodynamic from solid; for Solubility compared with parent drug: aqueous solubility; for Fold increase in solubility: versus Paclitaxel
Experimental: Solubility was checked in different solvent systems.
Area under the curve for each were determined and based on that fold increase in solubility was determined.

[3] = Pharmacokinetics in SD rats, IV dosing (Docetaxel and 1008); format: in vivo; settings: for AUC / Cmax / Tmax / half-life: Sprague-Dawley, rat, plasma, PEG400 and Normal saline; for half-life: read-out: T1/2 elimination (converted)
Text: The results were compared with exposure of Docetaxel (10 mpk) using the same dosing vehicle.
Supernatant was kept for analysis.

[4] = Stability and solubility in dosing vehicle PEG400 and Normal saline; format: physicochemical; settings: PEG400 and Normal saline in fixed composition
[5] = Solubility in miliQ water by HPLC (area under the curve); format: physicochemical
Experimental: 1 mg/ml and 2 mg/ml solution of Mefloquine and Tadlafil respectively and equivalent weight of respective trigonelline modified compound (1011), compound (1005) of the present invention was taken in miliQ water, vortexed, centrifuged for 3 min, filtered and loaded on HPLC column (Zorbax Eclipse C18; Mobile Phase: A: 0.1% TFA, B: ACN; run time 15 min, Waters 2996 HPLC model).

[6] = 3 mg/Kg iv, PEG/Normal Saline (3 mpk 1001 = 2.1 mpk Paclitaxel delivered)
[7] = concentration used for HPLC analysis 1 mg/ml
[8] = concentration used for HPLC analysis 2 mg/ml

CC(=O)O[C@H]1C(=O)[C@@]2(C)[C@H]([C@H](OC(=O)c3ccccc3)[C@]3(O)C[C@H](OC(=O)[C@H](O)[C@@H](NC(=O)c4ccccc4)c4ccccc4)C(C)=C1C3(C)C)[C@]1(OC(C)=O)CO[C@@H]1C[C@@H]2O [Paclitaxel, reference compound]
Cmax [1, 6]: 104 nm
Solubility in 5% DMA in normal saline ([2]; 5% DMA in normal saline): Not soluble
Solubility in 5% DMSO in Normal saline ([2]; 5% DMSO in Normal saline): Not soluble
Solubility in 9% NP in Normal Saline ([2]; 9% NP in Normal Saline): Not soluble
solubility ([2]; normal saline, saline or isotonic, Solubility in Normal saline): 0.1 µg/mL (≈ 0.117 µM)

CC(=O)O[C@@]12CO[C@@H]1C[C@H](O)[C@@]1(C)C(=O)[C@H](O)C3=C(C)[C@@H](OC(=O)[C@H](OC(=O)c4ccc[n+](C)c4)[C@@H](NC(=O)OC(C)(C)C)c4ccccc4)C[C@@](O)([C@@H](OC(=O)c4ccccc4)[C@H]21)C3(C)C.[I-] [Compound 1008, 3-((((2R,3S)-1-(((2aR,4S,4aS,6R,9S,11S,12S,12aR,12bS)-12b-acetoxy-12-(benzoyloxy)-4,6,11-trihydroxy-4a,8,13,13-tetramethyl-5-oxo-2a,3,4,4a,5,6,9,10,11,12,12a,12b-dodecahydro-1H-7,11-methanocyclodeca[3,4]benzo[1,2-b]oxet-9-yl)oxy)-3-((tert-butoxycarbonyl)amino)-1-oxo-3-phenylpropan-2-yl)oxy)carbonyl)-1-methylpyridin-1-ium iodide]
Exposure compared to the parent drug ([3]; IV, 1008 3 mpk versus Docetaxel 10 mpk): significantly higher exposure
Pharmacokinetics compared to the original compound ([3]; IV, versus Docetaxel): enhanced pharmacokinetics
AUC ([3]; 3 mg/kg, 3 mpk IV): 1.04 µM·h
Cmax ([3]; 3 mg/kg, 3 mpk IV): 6.92 µM
Tmax ([3]; 3 mg/kg, 3 mpk IV): 4.8 min
half-life ([3]; 3 mg/kg, 3 mpk IV): 107 min
Stability and solubility in the dosing vehicle [4]: stable and soluble
Solubility compared with parent drug [2]: better aqueous solubility

OC(c1cc(C(F)(F)F)nc2c(C(F)(F)F)cccc12)C1CCCCN1 (stereo not shown) [Mefloquine, reference compound]
solubility [5, 7]: Poor

CC(=O)O[C@H]1C(=O)C2(C)C([C@H](OC(=O)c3ccccc3)[C@]3(O)C[C@H](OC(=O)[C@H](OC(=O)c4ccc[n+](C)c4)[C@H](NC(=O)c4ccccc4)c4ccccc4)C(C)=C1C3(C)C)[C@]1(OC(C)=O)CO[C@@H]1C[C@@H]2O.[I-] (stereo partly drawn) [Compound 1001, 3-((((1R,2R)-1-benzamido-3-(((2aR,4S,6R,9S,11S,12S,12bS)-6,12b-diacetoxy-12-(benzoyloxy)-4,11-dihydroxy-4a,8,13,13-tetramethyl-5-oxo-2a,3,4,4a,5,6,9,10,11,12,12a,12b-dodecahydro-1H-7,11-methanocyclodeca[3,4]benzo[1,2-b]oxet-9-yl)oxy)-3-oxo-1-phenylpropan-2-yl)oxy)carbonyl)-1-methylpyridin-1-ium iodide]
Cmax ([1]; 1 mg/Kg iv, PEG/Normal Saline (1 mpk 1001 = 0.71 mpk Paclitaxel delivered)): 2384 nm
Cmax [1, 6]: 8620 nm
Fold increase in the AUC ([1]; iv, versus Paclitaxel): more than 10 fold
Fold increase in the Cmax ([1]; iv, versus Paclitaxel): more than 80 folds
Stability and solubility in the dosing vehicle [4]: stable and soluble
Fold increase in solubility ([2]; Normal Saline with 5% Dimethylacetamide): > 10,000 ×
Fold increase in solubility ([2]; Normal Saline with 5% Dimethylsulfoxide): > 12,000 ×
Fold increase in solubility ([2]; Normal Saline with 9% N-Methylpyrrolidone): > 15,000 ×
Fold increase in solubility ([2]; Normal Saline): > 5000 ×
Solubility compared with parent drug [2]: increased solubility; also recorded: better aqueous solubility
solubility ([2]; aqueous with cosolvent or surfactant or cyclodextrin, Solubility in 5% DMA in normal saline, 5% DMA in normal saline): ~1000 µg/mL
solubility ([2]; aqueous with cosolvent or surfactant or cyclodextrin, Solubility in 5% DMSO in Normal saline, 5% DMSO in Normal saline): > 1200 µg/mL
solubility ([2]; aqueous with cosolvent or surfactant or cyclodextrin, Solubility in 9% NP in Normal Saline, 9% NP in Normal Saline): > 1500 µg/mL
solubility ([2]; saline or isotonic, Solubility in Normal saline, Normal saline): > 500 µg/mL
Stability in the selected solvents ([2]; selected solvent systems in normal saline): stable

C[n+]1cccc(C(=O)N2CCCC[C@@H]2[C@@H](O)c2cc(C(F)(F)F)nc3c(C(F)(F)F)cccc23)c1 [Compound 1011, 3-((R)-2((S)-(2,8-bis(trifluoromethyl)quinolin-4 yl)(hydroxy)methyl)piperidine-1-carbonyl)-1-methylpyridin-1-ium]
Aqueous solubility over parent drug [5]: significant increase
Fold increase in solubility for equiv. wt of DM using HPLC ([5]; 1 mg/ml, versus parent Mefloquine): 2.4 fold
solubility [5, 7]: Completely

CN1CC(=O)N2[C@H](c3ccc4c(c3)OCO4)c3c(c4ccccc4n3C(=O)c3ccc[n+](C)c3)C[C@@H]2C1=O [Compound 1005, 3-((6R,12aR)-6-(benzo[d][1,3]dioxol-5-yl)-2-methyl-1,4-dioxo-1,2,3,4,6,7,12,12a-octahydropyrazino[1′,2′:1,6]pyrido[3,4-b]indole-7-carbonyl)-1-methylpyridin-1-ium iodide]
Aqueous solubility over parent drug [5]: significant increase
Fold increase in solubility for equiv. wt of DM using HPLC ([5]; 2 mg/ml, versus parent Tadalafil): 80 fold
solubility [5, 8]: Completely

CC(=O)O[C@@]12CO[C@@H]1C[C@H](O)[C@@]1(C)C(=O)[C@H](O)C3=C(C)[C@@H](OC(=O)[C@H](O)[C@@H](NC(=O)OC(C)(C)C)c4ccccc4)C[C@@](O)([C@@H](OC(=O)c4ccccc4)[C@H]21)C3(C)C [Docetaxel, reference compound]
AUC ([3]; 10 mg/kg, 10 mpk IV): 0.897 µM·h
Cmax ([3]; 10 mg/kg, 10 mpk IV): 0.495 µM
Tmax ([3]; 10 mg/kg, 10 mpk IV): 4.8 min
half-life ([3]; 10 mg/kg, 10 mpk IV): 124 min

CN1CC(=O)N2[C@H](c3ccc4c(c3)OCO4)c3[nH]c4ccccc4c3C[C@@H]2C1=O [Tadalafil, reference compound]
solubility [5, 8]: Very poor

— patent US10752589B2, “Trigonelline based compounds” (SPHAERA PHARMA PVT. LTD., priority 2016, dated 2020)
